Test system: 242566-281-R-J2-PDC complex spheroid viability
Experiment: Anticancer human tumor 242566-281-R-J2-PDC patient-derived pancreatic carcinoma cell line growth inhibition [RAS]
Settings: for IC50: curve of first compound; for viability, T/C: stronger effect = lower value
Excerpt: RAS pathway inhibitors in Combinations in Complex Spheroids
A high-throughput screen of multi-cell type tumor spheroids was designed to identify active combinations of RAS pathway inhibitors and targeted small molecules. Complex spheroids include a stromal component modeled by human endothelial cells (HUVEC) and fibroblasts modeled by human mesenchymal stem cells (MSCs). The concentration ranges selected for each drug and investigational agent were based upon clinically achievable concentrations if the clinical Cmax of the agent was known.
Compounds. The drugs and investigational agents: abemaciclib (NSC768073), cobimetinib (NSC768068), divarasib (GDC6063, NSC841802), docetaxel (NSC628503), GDC-1971 (RLY-1971, NSC841576), gemcitabine (NSC613327), inavolisib (NSC800729), ipatasertib (NSC767898), KB-0742 (NSC834161), MRTX-1133 (NSC836407), osimertinib (NSC779217), RMC-4630 (NSC839698), RMC-6236 (NSC851965), RMC-6291 (NSC852671), Ro-3306 (NSC812927), sapanisertib (NSC764658), SN-38 (NSC673596), staurosporine (NSC755774), SY5609 (NSC837396), and tovorafenib (DAY101, NSC766906), were obtained from the National Cancer Institute (NCI) Developmental Therapeutics Program Chemical Repository. The FDA-approved anticancer drug set is available from the NCI Developmental Therapeutics Program. […] The stock solutions were prepared in dimethyl sulfoxide (DMSO, Sigma-Aldrich, St. Louis, MO, cat. D2650) at 800-fold the tested concentration and stored at -70 degrees C prior to their use. All drugs and investigational agents were tested over a range starting from a high concentration at or near the clinical Cmax and decreasing in half-log increments. If the clinical Cmax for an agent had not been determined, the highest concentration tested was 10 microM.
Cell Culture. All cells were maintained in an incubator at 37 degrees C and 5% CO2 with 95% humidity. The PDC lines were cultured according to standard operating procedures established by the NCI PDMR. All PDCs were thawed and cultured in Matrigel-coated flasks prepared with a working solution of 1X Ham's F-12 nutrient mix, without supplementation (Invitrogen, Waltham, MA, cat. 11765054), 100 U/mL penicillin-streptomycin (Invitrogen, cat. 15140122), and 2.5% Matrigel (Corning Inc., Corning, NY, cat. 354248) for the first three passages. The 362531-283-R-J2-PDC and 782815-120-R-J1-PDC lines were cultured in 6C/Colon 1B media, which includes advanced DMEM/F-12 (Thermo Fisher Scientific, cat. 12634028), 10 mM HEPES (Thermo Fisher Scientific, cat. 15630080), 1X GlutaMAX supplement (Thermo Fisher Scientific, cat. 35050061), 0.1 mg/mL primocin (InvivoGen, San Diego, CA, cat. ant-pm-2), 10% defined fetal bovine serum, heat inactivated (HyClone Laboratories Inc., Logan, UT, cat. SH30070.03HI), 50% L-WRN conditioned media (ATCC, cat. CRL-3276), 1.25 mM N-Acetyl-L-cysteine (Sigma-Aldrich, cat. A9165), 10 mM nicotinamide (Sigma-Aldrich, cat. N0636), 1X B-27 supplement (Thermo Fisher Scientific, cat. 17504044), 1X N-2 supplement (Thermo Fisher Scientific, cat. 17502048), 50 ng/mL human EGF (Thermo Fisher Scientific, cat. PHG0311), and 10 microM Y-27632 dihydrochloride (Tocris Bioscience, cat. 1254). The K12877-001-R-J1-PDC line was cultured in 6I media, which includes all 6C/Colon 1B media plus 10 ng/mL human FGF-10 (PeproTech, cat. 100-26), 1 ng/mL human FGF-2 (PeproTech, cat. 100-18B), 1 µM prostaglandin E2 (Tocris Bioscience, cat. 2296), […] hydrocortisone (Sigma-Aldrich, cat. H4001), and […] bovine insulin (Sigma-Aldrich, cat. I6634). The K86415-001-R-J1-PDC line was cultured in 6D media, which includes all 6C/Colon 1B media components minus the L-WRN conditioned media. The 485176-168-R4-J1-PDC was cultured in PANC media, which includes all 6C/Colon 1B media plus 100 ng/mL human FGF-10 (PeproTech, cat. 100-26), 500 nM SB-431542 (Selleckchem, cat. S1067), and 10 nM gastrin (Tocris Bioscience, cat. 3006). […]

[1] = second compound 0.000949 µM, first compound 0.0316 µM
[2] = second compound 0.000949 µM, first compound 0.1 µM
[3] = second compound 0.000949 µM, first compound 0.316 µM
[4] = second compound 0.000949 µM, first compound 1 µM
[5] = second compound 0.000949 µM, first compound 3.16 µM
[6] = second compound 0.000949 µM, first compound 10 µM
[7] = second compound 0.003 µM, first compound 0.0316 µM
[8] = second compound 0.003 µM, first compound 0.1 µM
[9] = second compound 0.003 µM, first compound 0.316 µM
[10] = second compound 0.003 µM, first compound 1 µM
[11] = second compound 0.003 µM, first compound 3.16 µM
[12] = second compound 0.003 µM, first compound 10 µM
[13] = second compound 0.00949 µM, first compound 0.0316 µM
[14] = second compound 0.00949 µM, first compound 0.1 µM
[15] = second compound 0.00949 µM, first compound 0.316 µM
[16] = second compound 0.00949 µM, first compound 1 µM
[17] = second compound 0.00949 µM, first compound 3.16 µM
[18] = second compound 0.00949 µM, first compound 10 µM
[19] = second compound 0.03 µM, first compound 0.0316 µM
[20] = second compound 0.03 µM, first compound 0.1 µM
[21] = second compound 0.03 µM, first compound 0.316 µM
[22] = second compound 0.03 µM, first compound 1 µM
[23] = second compound 0.03 µM, first compound 3.16 µM
[24] = second compound 0.03 µM, first compound 10 µM
[25] = second compound 0.0949 µM, first compound 0.0316 µM
[26] = second compound 0.0949 µM, first compound 0.1 µM
[27] = second compound 0.0949 µM, first compound 0.316 µM
[28] = second compound 0.0949 µM, first compound 1 µM
[29] = second compound 0.0949 µM, first compound 3.16 µM
[30] = second compound 0.0949 µM, first compound 10 µM
[31] = second compound 0.3 µM, first compound 0.0316 µM
[32] = second compound 0.3 µM, first compound 0.1 µM
[33] = second compound 0.3 µM, first compound 0.316 µM
[34] = second compound 0.3 µM, first compound 1 µM
[35] = second compound 0.3 µM, first compound 3.16 µM
[36] = second compound 0.3 µM, first compound 10 µM
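Note: spheroids exposed to compound for 7 days before readout.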
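Throughout, for viability, T/C: 100% = DMSO vehicle control wells.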

Question: What does the source list for CC(=O)OC12COC1CC(O)C1(C)C(=O)C(O)C3=C(C)C(OC(=O)C(O)C(NC(=O)OC(C)(C)C)c4ccccc4)CC(O)(C(OC(=O)c4ccccc4)C21)C3(C)C (centres undefined) + CCn1c(-c2cccnc2C(C)OC)c2c3cc(ccc31)N1CCOC(CC(NC(=O)C(C(C)C)N(C)C(=O)C3(F)CCN(C(=O)C#CC(C)(C)N(C)C)CC3)C(=O)N3CCCC(N3)C(=O)OCC(C)(C)C2)C1?
Answer: IC50 (second compound 0.000949 µM): < 31.6 nM; IC50 (second compound 0.003 µM): < 31.6 nM; IC50 (second compound 0.00949 µM): < 31.6 nM; IC50 (second compound 0.03 µM): < 31.6 nM; IC50 (second compound 0.0949 µM): < 31.6 nM; IC50 (second compound 0.3 µM): < 31.6 nM; viability, T/C [1]: 47.2%; viability, T/C [2]: 33.6%; viability, T/C [3]: 26.5%; viability, T/C [4]: 35.8%; viability, T/C [5]: 40.1%; viability, T/C [6]: 38.8%; viability, T/C [7]: 40.7%; viability, T/C [8]: 30.1%; viability, T/C [9]: 32.4%; viability, T/C [10]: 35.7%; viability, T/C [11]: 40.7%; viability, T/C [12]: 33.9%; viability, T/C [13]: 46.7%; viability, T/C [14]: 32.3%; viability, T/C [15]: 35.8%; viability, T/C [16]: 37.7%; viability, T/C [17]: 35.9%; viability, T/C [18]: 34.9%; viability, T/C [19]: 43.2%; viability, T/C [20]: 33.9%; viability, T/C [21]: 31.8%; viability, T/C [22]: 34.6%; viability, T/C [23]: 29.3%; viability, T/C [24]: 43.4%; viability, T/C [25]: 36.9%; viability, T/C [26]: 34.5%; viability, T/C [27]: 31.4%; viability, T/C [28]: 33.2%; viability, T/C [29]: 27.9%; viability, T/C [30]: 40.3%; viability, T/C [31]: 26.3%; viability, T/C [32]: 27%; viability, T/C [33]: 26.2%; viability, T/C [34]: 20.2%; viability, T/C [35]: 27%; viability, T/C [36]: 29.4%

Question: What does the source list for C[C@@H](NC(=O)c1ncnc(N)c1Cl)c1ncc(C(=O)Nc2cc(C(F)(F)F)c(Cl)cn2)s1 + CCn1c(-c2cc(N3CCN(C)CC3)cnc2C(C)OC)c2c3cc(ccc31)-c1csc(n1)CC(NC(=O)C1CC1C)C(=O)N1CCCC(N1)C(=O)OCC(C)(C)C2?
Answer: IC50 (second compound 0.000949 µM): > 10000 nM; IC50 (second compound 0.003 µM): > 10000 nM; IC50 (second compound 0.00949 µM): > 10000 nM; IC50 (second compound 0.03 µM): < 31.6 nM; IC50 (second compound 0.0949 µM): < 31.6 nM; IC50 (second compound 0.3 µM): < 31.6 nM; viability, T/C [1]: 98.8%; viability, T/C [2]: 114%; viability, T/C [3]: 82.7%; viability, T/C [4]: 97.9%; viability, T/C [5]: 106%; viability, T/C [6]: 76.4%; viability, T/C [7]: 89.8%; viability, T/C [8]: 73.5%; viability, T/C [9]: 71.6%; viability, T/C [10]: 79.2%; viability, T/C [11]: 92.7%; viability, T/C [12]: 62.3%; viability, T/C [13]: 54%; viability, T/C [14]: 49.3%; viability, T/C [15]: 54.7%; viability, T/C [16]: 63.3%; viability, T/C [17]: 58.9%; viability, T/C [18]: 52.7%; viability, T/C [19]: 35.3%; viability, T/C [20]: 35.2%; viability, T/C [21]: 39.9%; viability, T/C [22]: 35.4%; viability, T/C [23]: 29.8%; viability, T/C [24]: 40.1%; viability, T/C [25]: 22.9%; viability, T/C [26]: 24.8%; viability, T/C [27]: 25.7%; viability, T/C [28]: 27.2%; viability, T/C [29]: 23.6%; viability, T/C [30]: 26.3%; viability, T/C [31]: 21.2%; viability, T/C [32]: 23.5%; viability, T/C [33]: 22.2%; viability, T/C [34]: 19.9%; viability, T/C [35]: 21.9%; viability, T/C [36]: 22.6%

Source: PubChem BioAssay AID2060910 (Molecular Pharmacology Branch, DTP, NCI, 2025)
